Measured values from US20030095937A1, “Method for stimulating hair growth by administering vitamin D analogs” (priority 2001, published 2003).

Assays:
[1] = test system: BNX nu/nu mice; assay: Hair growth scoring in nude mice; format: in vivo; set-up: key: 1: Skin pink, no hair; 2: Skin thick, pigmented, no hair; 3: Skin thick, highly pigmented, no hair; 4: Skin thick, pigmented, scattered hair; 5: Hair 1-10% of area; 6: Hair 10-25% of area; 7: Hair 25-50% of area; 8: Hair 50-75% of area; 9: Hair >75% of area; Hair 100% covered; conditions: male nude mice, i.p. 3 times a week, at least 35 days, hair score scale 1-10
[2] = Calcemic properties: highest dose that would not cause hypercalcemia; format: in vivo, mouse; conditions: identified in previous experiments
Experimental: (§1) Vitamin D3 analogs were dissolved in absolute ethanol prior to determining the molar concentration as measured by UV absorbance using their molar extinction coefficient at […]. All the analogs were stored at −20° C. in absolute ethanol as stock solutions of 10^−3 mol/liter. The last dilution was made in phosphate buffered saline, prior to administration into mice. Vitamin D3 compounds were always protected from light. The inventors chose the highest dose that would not cause hypercalcemia. These doses, identified in previous experiments, are summarized below in Table 1.

[3] = test system: BNX nu/nu mice; assay: Hair growth scoring in nude mice; format: in vivo; set-up: key to Peak Score, Mouse 2: 1: Skin pink, no hair; 2: Skin thick, pigmented, no hair; 3: Skin thick, highly pigmented, no hair; 4: Skin thick, pigmented, scattered hair; 5: Hair 1-10% of area; 6: Hair 10-25% of area; 7: Hair 25-50% of area; 8: Hair 50-75% of area; 9: Hair >75% of area; Hair 100% covered
Experimental: In the experiments described herein, BNX nu/nu male and female mice at 8 weeks of age were used. In one series of experiments, a total of 3 males were allotted equally within each of the groups consisting of 6 different vitamin D3 compounds, and a control untreated group. In an addition, three male and 3 female mice received EB1089. All of the analogs were injected intraperitoneally (i.p.), three times a week in a volume of 200 μl phosphate buffered saline.
as §1
The inventors developed the following scale for measuring hair growth in BNX mice:
The inventors examined hair growth of nude mice as the mice received diluant (control mice), 1.25(OH)2D3 or one of 6 vitamin D3 analogs. Each group contained three mice. The effect of Vitamin D3 analogs on hair growth of nude mice was systematically assessed on each mouse by giving them scores from a scale of 1-10 (Table1), 3 times a week. The score for hair growth takes in to account the thickness and pigmentation, as both of these characteristics correlate indirectly with induction of anagen, the growth phase of the hair cycle. For example, a score of […] represents skin thickening with heavy pigmentation; this reflects the formation of the hair shaft prior to the protrusion of hair above the skin surface.

[4] = test system: MCF-7 breast cancer cells; assay: Inhibition of clonal growth of MCF-7 cells; format: cell-based, human; conditions: effective dose that inhibited 50% clonal growth of MCF-7 breast cancer cells
[5] = test system: human HL60 myeloid leukemia cells; assay: Inhibition of clonal growth of HL60 cells; format: cell-based; conditions: effective dose that inhibited 50% clonal growth of human HL60 myeloid leukemia cells
[6] = test system: CYP19 gene that encodes the P450 aromatase; assay: RT-PCR RNA analysis of skin samples for CYP19 expression; format: in vivo, mice; conditions: skin samples at the highest score of 7, RT-PCR, data not shown
Experimental: Skin samples from mice were processed as is routinely done in the art. RT-PCR was performed to make cDNA which was examined for expression of CYP19 gene that encodes the P450 aromatase (9).
Skin samples at the highest score of 7 from Ro-25-9022 and control skin sample were processed to extract RNA, cDNA was made and amplified for the expression of CYP19 gene that encodes P450 aromatase.

[7] = male nude mice, i.p. 3 times a week, at least 35 days, hair score scale 1-10
[8] = male nude mice, three mice per group, i.p. 3 times a week, hair score scale 1-10
[9] = female nude mice, i.p. 3 times a week, hair score scale 1-10

Row | Compound | Peak Score, Mouse 3 [1] | NON-HYPERCALCEMIC DOSE [2] | Peak Score, Mouse 1 [3, 7] | Peak Score, Mouse 2 [3, 7] | Mean Peak Score [3, 8] | hair growth score reached, not exceeded ([3]; nude mice, scored 3 times a week, scale 1-10) | ED50 MCF-7 [4] | ED50 HL60 [5] | timing of first peak of hair growth, females vs males ([3]; FIG. 3F) | ability to stimulate hair growth in male and female mice ([3]; both males and females) | latency period to achieve maximal hair growth ([3]; female nude mice) | Peak Score, Mouse 1 [3, 9] | Peak Score, Mouse 2 [3, 9] | Peak Score, Mouse 3 [3, 9] | Mean Peak Score ([3]; female nude mice, three mice, i.p. 3 times a week, hair score scale 1-10) | latency period to achieve maximal hair growth ([3]; male nude mice) | time of second cycle of hair growth from the first cycle ([3]; nude mice) | expression of CYP19 gene (P450 aromatase) vs control skin sample [6]
1 | C=C1/C(=C\C=C2/CCC[C@]3(C)[C@@H]([C@H](C)CCCC(C)(C)O)CC[C@@H]23)C[C@@H](O)C[C@@H]1O [1,25(OH)2D3, reference compound] | 4 | 0.0626 μg/mouse | 5 (Hair 1-10% of area) | 5 (Hair 1-10% of area) | 4.67 | 5 (Hair 1-10% of area) | 1 × 10^−7 MOLAR UNITS | 1 × 10^−8 MOLAR UNITS |  |  |  |  |  |  |  |  |  | 
2 | C=C1/C(=C\C=C2/CCC[C@]3(C)[C@@H]([C@H](C)/C=C/C=C/C(O)(CC)CC)CC[C@@H]23)C[C@@H](O)C[C@@H]1O [EB1089] | 4 | 0.5 µg/kg | 7 (Hair 25-50% of area) | 8 (Hair 50-75% of area) | 6.33 |  |  | 5 × 10^−11 MOLAR UNITS | first peak of hair growth in females slightly preceded the peak in the males | Both males and females had hair stimulation | about 9 days | 7 (Hair 25-50% of area) | 7 (Hair 25-50% of area) | 7 (Hair 25-50% of area) | 7.00 | about 18 days | about 16 days | 
3 | C=C1/C(=C\C=C2/CCC[C@]3(C)[C@@H]([C@@H](C)OCCCC(O)(CC)CC)CC[C@@H]23)C[C@@H](O)C[C@@H]1O [KH1060, 1α, 25—(OH)2-20-epi-22-oxa-24,26,27-trishomo-vitamin D3] | 6 (Hair 10-25% of area) | 0.0125 μg/mouse | 8 (Hair 50-75% of area) | 6 (Hair 10-25% of area) | 6.67 |  | 1 × 10^−10 MOLAR UNITS | 1 × 10^−12 MOLAR UNITS |  |  |  |  |  |  |  | ~21 days |  | 
4 | C[C@H](C/C=C/C(O)(C(F)(F)F)C(F)(F)F)C1=CCC2/C(=C/C=C3C[C@@H](O)C[C@H](O)C3)CCC[C@]12C (stereo partly shown) [Ro25-9022, 1,25-(OH)2-16-ene-23-yne-26,27-F6-19-nor-D3] | 4 | 0.00125 μg/mouse | 8 (Hair 50-75% of area) | 4 | 6.33 |  | 6 × 10^−10 MOLAR UNITS | 2 × 10^−10 MOLAR UNITS |  |  |  |  |  |  |  |  |  | equivalent expression
5 | C[C@H](CCC(=O)C(C)(C)O)C1=CCC2/C(=C/C=C3C[C@@H](O)C[C@H](O)C3)CCC[C@]12C (stereo partly shown) [Ro26-9114] | 4 | 6 μg/mouse | 8 (Hair 50-75% of area) | 8 (Hair 50-75% of area) | 5.33 |  |  | 1 × 10^−10 MOLAR UNITS |  |  |  |  |  |  |  | about 9 days | about 16 days | 
6 | C[C@]12CCC/C(=C\C=C3C[C@@H](O)C[C@H](O)C3)C1CC[C@@H]2C1(C/C=C/C(O)(C(F)(F)F)C(F)(F)F)CC1 (stereo partly shown) [Ro27-0574] | 4 |  | 8 (Hair 50-75% of area) | 8 (Hair 50-75% of area) | 6.67 |  | 2 × 10^−9 MOLAR UNITS | 2 × 10^−10 MOLAR UNITS |  |  |  |  |  |  |  |  | about 16 days | 
7 | CC(C)(O)CCCC(CCCC(C)(C)O)[C@H]1CCC2/C(=C/C=C3C[C@@H](O)C[C@H](O)C3)CCC[C@@]21C (stereo partly shown) [Ro27-5646] | 6 (Hair 10-25% of area) | 0.01 μg/mouse | 8 (Hair 50-75% of area) | 8 (Hair 50-75% of area) | 7.33 |  | 4 × 10^−10 MOLAR UNITS | 2 × 10^−10 MOLAR UNITS |  |  |  |  |  |  |  |  |  | 
